The record followed here is PubChem BioAssay AID270 (DTP/NCI, 2004).

This test deals with BDF1 mice, s.c. Lewis lung carcinoma, T/C %. In words: NCI In Vivo Anticancer Drug Screen. Data for tumor model Lewis Lung Carcinoma (subcutaneous) in B6D2F1 (BDF1) mice. The procedure, abridged: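 Readout: survival or tumor size, expressed as treated (T) over vehicle control (C). Transplantable tumor implanted in mice; compound given to the treated group.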
[1] abbreviates: endpoint: mean tumor weight, dose: 50.0 mg/kg/injection, schedule: Q01DX011 (ip), vehicle: saline, higher = larger tumour.
Where [2] appears, read: endpoint: mean tumor weight, dose: 100.0 mg/kg/injection, schedule: Q01DX011 (ip), vehicle: saline, higher = larger tumour.
Setting [3] is: endpoint: median survival time, dose: 4.0 mg/kg/injection, schedule: Q01DX009 (ip), vehicle: saline, higher = longer survival.
Where [4] appears, read: endpoint: mean tumor weight, dose: 2.5 mg/kg/injection, schedule: Q01DX011 (ip), vehicle: saline, higher = larger tumour.
Where [5] appears, read: endpoint: mean tumor weight, dose: 10.0 mg/kg/injection, schedule: Q01DX011 (ip), vehicle: saline, higher = larger tumour.
[6] abbreviates: endpoint: mean tumor weight, dose: 200.0 mg/kg/injection, schedule: Q01DX011 (ip), vehicle: saline, higher = larger tumour.

Molecules are shown by their SMILES. Where “and” joins values, the source holds several entries; their conditions need not be identical. Identical values can stand only once. Results filed as inconclusive are left out.

Consider `COc1cc(N(CCCl)CCCl)ccc1NC(=O)c1ccccc1`, for which the T/C was 68 % of control (endpoint: mean tumor weight, dose: 12.5 mg/kg/injection, schedule: Q01DX011 (ip), vehicle: Klucel (hydroxypropylcellulose) (HPC), higher = larger tumour) and 48 % of control (endpoint: mean tumor weight, dose: 25.0 mg/kg/injection, schedule: Q01DX011 (ip), vehicle: Klucel (hydroxypropylcellulose) (HPC), higher = larger tumour).

Regarding `O=c1c(O)c(-c2ccc(O)c(O)c2)oc2cc(O)cc(O)c12`, the T/C is, setting by setting: (endpoint: mean tumor weight, dose: 12.5 mg/kg/injection, schedule: Q01DX011 (ip), vehicle: saline, higher = larger tumour) 86 % of control; (endpoint: mean tumor weight, dose: 25.0 mg/kg/injection, schedule: Q01DX011 (ip), vehicle: saline, higher = larger tumour) 71 % of control; under setting [1], 61 % of control; under setting [2], 100 % of control.

For `CCS(=O)(=O)Nc1cccc(Nc2c3cccc(C)c3nc3c(C)cccc23)c1OC`, the T/C is 111 % of control (endpoint: median survival time, dose: 12.5 mg/kg/injection, schedule: Q01DX011 (ip), vehicle: saline with Tween-80, higher = longer survival); 101 % of control (endpoint: median survival time, dose: 25.0 mg/kg/injection, schedule: Q01DX011 (ip), vehicle: saline with Tween-80, higher = longer survival); 82 % of control (endpoint: median tumor weight (est.), dose: 12.5 mg/kg/injection, schedule: Q01DX011 (ip), vehicle: saline with Tween-80, higher = larger tumour); 44 % of control (endpoint: median tumor weight (est.), dose: 25.0 mg/kg/injection, schedule: Q01DX011 (ip), vehicle: saline with Tween-80, higher = larger tumour).

For `COc1cc([C@@H]2c3cc4c(cc3[C@@H](OC3OC5COC(C)OC5C(O)C3O)[C@H]3COC(=O)[C@H]23)OCO4)cc(OC)c1O` (some centres undefined), the T/C by setting is: under setting [3], 124 % of control; (endpoint: median survival time, dose: 20.0 mg/kg/injection, schedule: Q04DX003 (ip), vehicle: saline, higher = longer survival) 107 % of control; (endpoint: median survival time, dose: 20.0 mg/kg/injection, schedule: Q04DX003 (sc), vehicle: saline, higher = longer survival) 124 % of control; (endpoint: median survival time, dose: 80.0 mg/kg/injection, schedule: Q04DX003 (ip), vehicle: saline, higher = longer survival) 91 % of control.

On to `O=C(O)O.[Cd]`, for which, where the note is “endpoint: mean tumor weight, dose: 0.5 mg/kg/injection, schedule: Q01DX011 (ip), vehicle: carboxymethylcellulose (CMC), higher = larger tumour”, the T/C is 72 % of control.

For the molecule `NCC(O)c1ccc(O)c(O)c1` (centres undefined), the T/C is, setting by setting: under setting [4], 105 % of control; (endpoint: mean tumor weight, dose: 5.0 mg/kg/injection, schedule: Q01DX011 (ip), vehicle: saline, higher = larger tumour) 161 % of control; under setting [5], 63 % of control.

In the case of `N=C(N)N`, the T/C is 114 % of control under setting [2] and 89 % of control under setting [6].

Take `C=CCCCCCCCCC(=O)O`: the T/C runs as follows: under setting [1], 92 % of control; under setting [2], 91 % of control; under setting [6], 56 % of control; (endpoint: mean tumor weight, dose: 400.0 mg/kg/injection, schedule: Q01DX011 (ip), vehicle: saline, higher = larger tumour) 84 % of control.

As for `N=[N+]=CC(=O)OCC(N)C(=O)O` (centres undefined), the T/C under setting [4] was 76 % of control and 81 % of control; the T/C under setting [5] was 24 % of control and 31 % of control.

For the molecule `S=c1nc[nH]c2nc[nH]c12`, the T/C is, setting by setting: (endpoint: mean tumor weight, dose: 5.0 mg/kg/injection, schedule: Q01DX011 (ip), vehicle: alkali diluted with saline, higher = larger tumour) 58 % of control; (endpoint: mean tumor weight, dose: 10.0 mg/kg/injection, schedule: Q01DX011 (ip), vehicle: alkali diluted with saline, higher = larger tumour) 60 % of control; (endpoint: mean tumor weight, dose: 12.5 mg/kg/injection, schedule: Q01DX011 (ip), vehicle: alkali diluted with saline, higher = larger tumour) 62 % of control; (endpoint: mean tumor weight, dose: 20.0 mg/kg/injection, schedule: Q01DX011 (ip), vehicle: alkali diluted with saline, higher = larger tumour) 51 % of control; (endpoint: mean tumor weight, dose: 25.0 mg/kg/injection, schedule: Q01DX011 (ip), vehicle: alkali diluted with saline, higher = larger tumour) 66 % of control; (endpoint: mean tumor weight, dose: 50.0 mg/kg/injection, schedule: Q01DX011 (ip), vehicle: alkali diluted with saline, higher = larger tumour) 62 % of control. Moreover, the T/C runs as follows: (endpoint: median survival time, dose: 0.3 mg/kg/injection, schedule: Q01DX000 (ip), vehicle: alkali diluted with saline, higher = longer survival) 106 % of control; (endpoint: median survival time, dose: 1.0 mg/kg/injection, schedule: Q01DX009 (ip), vehicle: saline, higher = longer survival) 106 % of control; (endpoint: median survival time, dose: 2.0 mg/kg/injection, schedule: Q01DX009 (ip), vehicle: saline, higher = longer survival) 121 % of control; (endpoint: median survival time, dose: 3.0 mg/kg/injection, schedule: Q01DX000 (ip), vehicle: alkali diluted with saline, higher = longer survival) 101 % of control; under setting [3], 117 % of control; (endpoint: median survival time, dose: 8.0 mg/kg/injection, schedule: Q01DX009 (ip), vehicle: saline, higher = longer survival) 121 % of control. In addition, the T/C is 98 % of control (endpoint: median survival time, dose: 10.0 mg/kg/injection, schedule: Q01DX011 (ip), vehicle: alkali diluted with saline, higher = longer survival); 108 % of control (endpoint: median survival time, dose: 15.0 mg/kg/injection, schedule: Q01DX009 (ip), vehicle: saline with Tween-80, higher = longer survival); 91 % of control (endpoint: median survival time, dose: 20.0 mg/kg/injection, schedule: Q01DX011 (ip), vehicle: alkali diluted with saline, higher = longer survival); 97 % of control (endpoint: median survival time, dose: 30.0 mg/kg/injection, schedule: Q01DX000 (ip), vehicle: alkali diluted with saline, higher = longer survival); 104 % of control (endpoint: median survival time, dose: 30.0 mg/kg/injection, schedule: Q01DX009 (ip), vehicle: Klucel (hydroxypropylcellulose) (HPC), higher = longer survival); 89 % of control (endpoint: median survival time, dose: 40.0 mg/kg/injection, schedule: Q01DX011 (ip), vehicle: alkali diluted with saline, higher = longer survival). In addition, the T/C (endpoint: median tumor weight (est.), dose: 15.0 mg/kg/injection, schedule: Q01DX009 (ip), vehicle: saline with Tween-80, higher = larger tumour) was 79 % of control; the T/C (endpoint: median tumor weight (est.), dose: 30.0 mg/kg/injection, schedule: Q01DX009 (ip), vehicle: saline with Tween-80, higher = larger tumour) is 72 % of control; the T/C (endpoint: median tumor weight (est.), dose: 35.0 mg/kg/injection, schedule: Q01DX011 (ip), vehicle: alkali diluted with saline, higher = larger tumour) was 44 % of control; the T/C (endpoint: median tumor weight (est.), dose: 51.0 mg/kg/injection, schedule: Q01DX011 (ip), vehicle: alkali diluted with saline, higher = larger tumour) was 38 % of control; the T/C (endpoint: median tumor weight (est.), dose: 80.0 mg/kg/injection, schedule: Q01DX011 (ip), vehicle: alkali diluted with saline, higher = larger tumour) is 70 % of control and 75 % of control and 93 % of control.

As for `COC1=C(N)C(=O)c2nc(-c3nc(C(=O)O)c(C)cc3N)ccc2C1=O`, the T/C was 91 % of control (endpoint: median survival time, dose: 0.02 mg/kg/injection, schedule: Q01DX009 (ip), vehicle: Klucel (hydroxypropylcellulose) (HPC), higher = longer survival); 106 % of control (endpoint: median survival time, dose: 0.05 mg/kg/injection, schedule: Q01DX009 (ip), vehicle: Klucel (hydroxypropylcellulose) (HPC), higher = longer survival); 103 % of control (endpoint: median survival time, dose: 0.1 mg/kg/injection, schedule: Q01DX009 (ip), vehicle: Klucel (hydroxypropylcellulose) (HPC), higher = longer survival).

For the molecule `CCCOP(=S)(N1CC1)N1CC1`, the T/C by setting is: (endpoint: median survival time, dose: 18.75 mg/kg/injection, schedule: Q01DX009 (ip), vehicle: Klucel (hydroxypropylcellulose) (HPC), higher = longer survival) 112 % of control; (endpoint: median survival time, dose: 37.5 mg/kg/injection, schedule: Q01DX009 (ip), vehicle: Klucel (hydroxypropylcellulose) (HPC), higher = longer survival) 95 % of control; (endpoint: median survival time, dose: 75.0 mg/kg/injection, schedule: Q01DX009 (ip), vehicle: Klucel (hydroxypropylcellulose) (HPC), higher = longer survival) 94 % of control; (endpoint: median survival time, dose: 100.0 mg/kg/injection, schedule: Q01DX009 (ip), vehicle: saline, higher = longer survival) 116 % of control.

`C[C@]12C=CC(=O)C=C1CC[C@@H]1[C@@H]2[C@@H](O)C[C@@]2(C)[C@H]1CC[C@]2(O)C(=O)COC(=O)C1CCCC1`: the T/C runs as follows: (endpoint: mean tumor weight, dose: 9.0 mg/kg/injection, schedule: Q01DX011 (sc), vehicle: steriod suspending solution, higher = larger tumour) 68 % of control; (endpoint: mean tumor weight, dose: 13.0 mg/kg/injection, schedule: Q01DX011 (sc), vehicle: steriod suspending solution, higher = larger tumour) 51 % of control; (endpoint: mean tumor weight, dose: 20.0 mg/kg/injection, schedule: Q01DX011 (sc), vehicle: steriod suspending solution, higher = larger tumour) 77 % of control; (endpoint: mean tumor weight, dose: 30.0 mg/kg/injection, schedule: Q01DX011 (sc), vehicle: steriod suspending solution, higher = larger tumour) 52 % of control.

Take `O=C1N(Br)C(=O)C(c2ccc(Cl)cc2)(c2ccc(Cl)cc2)N1Br`: the T/C is 100 % of control (endpoint: median survival time, dose: 3.12 mg/kg/injection, schedule: Q01DX009 (ip), vehicle: Klucel (hydroxypropylcellulose) (HPC), higher = longer survival); 97 % of control (endpoint: median survival time, dose: 6.25 mg/kg/injection, schedule: Q01DX009 (ip), vehicle: Klucel (hydroxypropylcellulose) (HPC), higher = longer survival); 102 % of control (endpoint: median survival time, dose: 12.5 mg/kg/injection, schedule: Q01DX009 (ip), vehicle: Klucel (hydroxypropylcellulose) (HPC), higher = longer survival); 96 % of control (endpoint: median survival time, dose: 25.0 mg/kg/injection, schedule: Q01DX009 (ip), vehicle: Klucel (hydroxypropylcellulose) (HPC), higher = longer survival).

Turning to `CNC(=S)N/N=C/c1ccc([N+](=O)[O-])s1`, the T/C (endpoint: median survival time, dose: 25.0 mg/kg/injection, schedule: Q01DX009 (ip), vehicle: saline with Tween-80, higher = longer survival) was 121 % of control.

Consider `COc1ccc(/C=C/c2ccc3ccccc3[n+]2C)c(OC)c1OC`, for which the T/C runs as follows: (endpoint: median survival time, dose: 0.31 mg/kg/injection, schedule: Q01DX009 (ip), vehicle: Klucel (hydroxypropylcellulose) (HPC), higher = longer survival) 117 % of control; (endpoint: median survival time, dose: 0.62 mg/kg/injection, schedule: Q01DX009 (ip), vehicle: Klucel (hydroxypropylcellulose) (HPC), higher = longer survival) 108 % of control; (endpoint: median survival time, dose: 1.25 mg/kg/injection, schedule: Q01DX009 (ip), vehicle: Klucel (hydroxypropylcellulose) (HPC), higher = longer survival) 107 % of control; (endpoint: median survival time, dose: 2.5 mg/kg/injection, schedule: Q01DX009 (ip), vehicle: Klucel (hydroxypropylcellulose) (HPC), higher = longer survival) 89 % of control and 92 % of control.
